Measured values published in US8124599B2, “Method for treating neuronal and non-neuronal pain” (priority 2005, dated 2012).

What was measured:
[1] = tested on: combined chronic inflammatory pain and neuropathic pain; test: Combination of chronic inflammatory pain and neuropathic pain, mechanical allodynia; type: in vivo, mice; details: i.p. pre-treatment
Method: The mice used in this work were C57B1/6 strain adults (8 weeks old) and AC1 knockout mice of C57B1/6 background (Wei et al., 2002; Neuron). The animals were housed on a 12 h: 12 h light: dark cycle with food and water available ad libidum. All the protocols were in accordance with the Animal Care Committee of the University of Toronto. Both wild type and the knockouts were well groomed. Experimenters were blind to genotype. A muscle model of mechanical allodynia developed originally to study chronic pain (Sluka et al., 2001) was adapted for these experiments. Mice were briefly anaesthetized under halothane. 20μ liters carrageenan (3%, in normal saline pH 7.2) was injected intramuscularly deep into the left gastronemius muscle. Normal saline was used as a control. Injections were carried out on days 1 and 5. Behavioral nociceptive responses were measured on days 1, 2, 5 (before and after injection), 14 and 28. […] Mechanical allodynia was assessed based on the responsiveness of the hind paw to the application of von Frey filaments (Stoelting, Wood Dale, Ill.) to the point of bending. […] Ten trials were carried out each time at an interval of 5 minutes and the results were expressed as a percentage of positive responses. […] The effect of AC1 inhibition was assessed on maximal mechanical allodynia over the dorsum of the foot on the ipsilateral side of ligation on day 7. […]

[2] = tested on: acute inflammatory muscle pain; test: Formalin lick test for acute inflammatory muscle pain; type: in vivo, mice
Method: The mice used in this work were C57B1/6 strain adults (8 weeks old) and AC1 knockout mice of C57B1/6 background (Wei et al., 2002; Neuron). The animals were housed on a 12 h: 12 h light: dark cycle with food and water available ad libidum. All the protocols were in accordance with the Animal Care Committee of the University of Toronto. Both wild type and the knockouts were well groomed. Experimenters were blind to genotype. Under brief halothane anesthesia, 10 μL of 5% formalin was injected to the left gastronemius muscle. The needle was directed from the lateral side to avoid any bony penetration and the tip was stopped at the middle of the muscle belly. The total time spent licking or biting the injected leg including the thigh and the paw was recorded and totaled every 5 minutes for a period of 2 hours. To study the effect of test compounds on behavior, each compound to be tested was injected intra-peritoneally 30 minutes before the intramuscular injection of formalin.

[3] = tested on: chronic inflammatory muscle pain; test: Chronic inflammatory muscle pain (intramuscular carrageenan), mechanical allodynia by von Frey filament; type: in vivo, mice
Method: The mice used in this work were C57B1/6 strain adults (8 weeks old) and AC1 knockout mice of C57B1/6 background (Wei et al., 2002; Neuron). The animals were housed on a 12 h: 12 h light: dark cycle with food and water available ad libidum. All the protocols were in accordance with the Animal Care Committee of the University of Toronto. Both wild type and the knockouts were well groomed. Experimenters were blind to genotype. A muscle model of mechanical allodynia developed originally to study chronic pain (Sluka et al., 2001) was adapted for these experiments. Mice were briefly anaesthetized under halothane. 20μ liters carrageenan (3%, in normal saline pH 7.2) was injected intramuscularly deep into the left gastronemius muscle. Normal saline was used as a control. Injections were carried out on days 1 and 5. Behavioral nociceptive responses were measured on days 1, 2, 5 (before and after injection), 14 and 28. Mice were placed in a plexi-glass restrainer and allowed to acclimate for 30 minutes prior to testing. Mechanical allodynia was assessed based on the responsiveness of the hind paw to the application of von Frey filaments (Stoelting, Wood Dale, Ill.) to the point of bending. […] Ten trials were carried out each time at an interval of 5 minutes and the results were expressed as a percentage of positive responses. […]

neuropathic pain = test: Neuropathic pain (common peroneal nerve ligation), mechanical allodynia; type: in vivo, mice; details: 0.1 and 1 mg/kg body weight
Method: The mice used in this work were C57B1/6 strain adults (8 weeks old) and AC1 knockout mice of C57B1/6 background (Wei et al., 2002; Neuron). The animals were housed on a 12 h: 12 h light: dark cycle with food and water available ad libidum. All the protocols were in accordance with the Animal Care Committee of the University of Toronto. Both wild type and the knockouts were well groomed. Experimenters were blind to genotype. Mice were placed in a plexi-glass restrainer and allowed to acclimate for 30 minutes prior to testing. Mechanical allodynia was assessed based on the responsiveness of the hind paw to the application of von Frey filaments (Stoelting, Wood Dale, Ill.) to the point of bending. Positive responses include licking, biting and sudden withdrawing of the hind paw. Experiments were carried out to characterize the threshold stimulus. […] This filament was then used to test mechanical allodynia. Ten trials were carried out each time at an interval of 5 minutes and the results were expressed as a percentage of positive responses. Positive responses included prolonged hind paw withdrawal followed by licking or scratching. Neuropathic pain was induced by ligating the common peroneal nerve as previously known in the art. […] The effect of AC1 inhibition was assessed on maximal mechanical allodynia over the dorsum of the foot on the ipsilateral side of ligation on day 7. […]

[4] = tested on: mechanical allodynia in pain model; test: Oral administration to pain model (rat), mechanical allodynia; type: in vivo; details: 1 mg/kg/3 ml, as compared with the response to gabapentin

Structure (SMILES)	mechanical allodynia in combined chronic inflammatory and neuropathic pain ([1]; 0.1 and 1 mg/kg body weight)	dose of peak response, licking response of acute muscle inflammatory pain ([2]; dose range 0.1 to 5 mg/kg) [mg/kg body weight]	licking response of acute muscle inflammatory pain ([2]; dose range of 0.1 to 5 mg/kg bodyweight, intra-peritoneally 30 minutes before formalin, P<0.001)	mechanical allodynia in chronic inflammatory muscle pain, comparison of dosages ([3]; 1 mg/kg versus 0.1 mg/kg)	mechanical allodynia in chronic inflammatory muscle pain ([3]; 0.1 and 1 mg/kg body weight, von Frey filament)	allodynia in neuropathic pain (neuropathic pain)	mechanical allodynia in combined chronic inflammatory and neuropathic pain ([1]; 0.1 mg/kg and 1.1 mg/kg body weight)	mechanical allodynia after oral administration [4]
Nc1ncnc2c1ncn2CCNCCCCCO [HTS09836]	significantly reduced	1	significant reduction	superior effect	significant reduction in mechanical allodynia	significantly reduced	–	–
Nc1ncnc2c1ncn2CCNCCCCCO [NB001]	–	–	–	–	–	–	significantly reduced	significant reduction in mechanical allodynia
